# Like-named read-outs stand apart in the source and are kept apart here.
# Assays:
# RET = RET (Homo sapiens (Human), UniProt P07949); assay: RET enzyme assay (CisBio HTRF kinEASE); format: biochemical; details: for IC50: ATP at Km
# [1] = system: BaF3 cell lines expressing KDR; assay: BaF3 cell assay, KDR (CellTiter-Glo viability); format: cell-based; details: Mus musculus, BaF3 cells expressing KDR, 48 hours
# Experimental: (§1) The system originally developed by Daley and Baltimore^16 was used, whereby IL3-dependent BaF3 cells are modified to express an activated recombinant kinase. Following removal of IL3, the modified cells are dependent on the activity of the recombinant kinase for survival and proliferation. […] Following incubation of the cells for 48 hours at 37° C. in a humidified 5% CO2 atmosphere, viability was determined by addition of 10 μL CellTiter-Glo reagent (Promega) and measurement of luminescence.
# RET^V804M Cell = assay: BaF3 cell assay, RET^V804M (CellTiter-Glo viability); format: cell-based; details: Mus musculus, RET^V804M cells, 48 hours
# Experimental: as §1
# [2] = system: Non-modified BaF3 cells (WT); assay: BaF3 cell assay, non-modified (WT) cells with IL3; details: Mus musculus, BaF3, 48 h, read-out: BaF3 IC50
# Experimental: as §1
# KDR = KDR (Homo sapiens (Human), UniProt P35968); assay: KDR enzyme assay (CisBio HTRF kinEASE); format: biochemical; details: ATP at Km
# RET^V804M = RET^V804M (Homo sapiens (Human), UniProt P07949, V804M); assay: RET^V804M enzyme assay; format: biochemical
# [3] = biological target: BaF3 cell lines expressing KIF5B-RET (Homo sapiens, UniProt P07949); format: cell-based; details: read-out: RET Cell IC50
# Sequence of BaF3 cell lines expressing KIF5B-RET (P07949 29-1114 limits assumed, change not shown): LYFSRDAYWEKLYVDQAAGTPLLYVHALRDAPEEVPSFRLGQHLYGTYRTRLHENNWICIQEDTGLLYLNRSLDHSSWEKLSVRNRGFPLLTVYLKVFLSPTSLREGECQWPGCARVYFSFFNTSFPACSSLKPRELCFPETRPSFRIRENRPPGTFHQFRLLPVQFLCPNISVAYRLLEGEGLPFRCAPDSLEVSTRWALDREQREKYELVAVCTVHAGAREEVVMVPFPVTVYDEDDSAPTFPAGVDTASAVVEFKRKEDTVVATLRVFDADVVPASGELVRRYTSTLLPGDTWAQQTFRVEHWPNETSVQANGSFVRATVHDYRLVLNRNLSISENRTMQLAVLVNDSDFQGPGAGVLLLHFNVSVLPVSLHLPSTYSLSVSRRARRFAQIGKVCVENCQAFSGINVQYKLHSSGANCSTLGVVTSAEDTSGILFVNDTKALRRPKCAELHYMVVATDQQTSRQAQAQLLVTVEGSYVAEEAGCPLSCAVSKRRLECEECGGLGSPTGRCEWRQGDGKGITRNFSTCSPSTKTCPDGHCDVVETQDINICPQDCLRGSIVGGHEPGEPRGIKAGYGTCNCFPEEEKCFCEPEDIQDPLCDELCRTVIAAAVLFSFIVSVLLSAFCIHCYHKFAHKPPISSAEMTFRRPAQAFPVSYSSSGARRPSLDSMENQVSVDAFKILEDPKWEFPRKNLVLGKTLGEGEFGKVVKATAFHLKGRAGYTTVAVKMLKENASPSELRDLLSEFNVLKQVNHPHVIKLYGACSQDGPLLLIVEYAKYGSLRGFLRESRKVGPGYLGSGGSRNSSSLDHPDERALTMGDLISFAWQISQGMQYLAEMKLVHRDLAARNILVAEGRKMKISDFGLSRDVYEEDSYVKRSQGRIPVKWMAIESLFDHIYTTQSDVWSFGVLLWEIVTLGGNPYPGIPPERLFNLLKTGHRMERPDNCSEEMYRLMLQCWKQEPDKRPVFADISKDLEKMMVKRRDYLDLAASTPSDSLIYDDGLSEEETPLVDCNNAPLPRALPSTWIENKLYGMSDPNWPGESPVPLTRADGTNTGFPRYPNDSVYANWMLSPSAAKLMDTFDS
# Experimental: as §1
# Sequence of RET^V804M (P07949 29-1114 V804M): as the sequence (P07949 29-1114 limits assumed, change not shown) above, with V776M counted along it
# Sequence of KDR (P35968 20-1356): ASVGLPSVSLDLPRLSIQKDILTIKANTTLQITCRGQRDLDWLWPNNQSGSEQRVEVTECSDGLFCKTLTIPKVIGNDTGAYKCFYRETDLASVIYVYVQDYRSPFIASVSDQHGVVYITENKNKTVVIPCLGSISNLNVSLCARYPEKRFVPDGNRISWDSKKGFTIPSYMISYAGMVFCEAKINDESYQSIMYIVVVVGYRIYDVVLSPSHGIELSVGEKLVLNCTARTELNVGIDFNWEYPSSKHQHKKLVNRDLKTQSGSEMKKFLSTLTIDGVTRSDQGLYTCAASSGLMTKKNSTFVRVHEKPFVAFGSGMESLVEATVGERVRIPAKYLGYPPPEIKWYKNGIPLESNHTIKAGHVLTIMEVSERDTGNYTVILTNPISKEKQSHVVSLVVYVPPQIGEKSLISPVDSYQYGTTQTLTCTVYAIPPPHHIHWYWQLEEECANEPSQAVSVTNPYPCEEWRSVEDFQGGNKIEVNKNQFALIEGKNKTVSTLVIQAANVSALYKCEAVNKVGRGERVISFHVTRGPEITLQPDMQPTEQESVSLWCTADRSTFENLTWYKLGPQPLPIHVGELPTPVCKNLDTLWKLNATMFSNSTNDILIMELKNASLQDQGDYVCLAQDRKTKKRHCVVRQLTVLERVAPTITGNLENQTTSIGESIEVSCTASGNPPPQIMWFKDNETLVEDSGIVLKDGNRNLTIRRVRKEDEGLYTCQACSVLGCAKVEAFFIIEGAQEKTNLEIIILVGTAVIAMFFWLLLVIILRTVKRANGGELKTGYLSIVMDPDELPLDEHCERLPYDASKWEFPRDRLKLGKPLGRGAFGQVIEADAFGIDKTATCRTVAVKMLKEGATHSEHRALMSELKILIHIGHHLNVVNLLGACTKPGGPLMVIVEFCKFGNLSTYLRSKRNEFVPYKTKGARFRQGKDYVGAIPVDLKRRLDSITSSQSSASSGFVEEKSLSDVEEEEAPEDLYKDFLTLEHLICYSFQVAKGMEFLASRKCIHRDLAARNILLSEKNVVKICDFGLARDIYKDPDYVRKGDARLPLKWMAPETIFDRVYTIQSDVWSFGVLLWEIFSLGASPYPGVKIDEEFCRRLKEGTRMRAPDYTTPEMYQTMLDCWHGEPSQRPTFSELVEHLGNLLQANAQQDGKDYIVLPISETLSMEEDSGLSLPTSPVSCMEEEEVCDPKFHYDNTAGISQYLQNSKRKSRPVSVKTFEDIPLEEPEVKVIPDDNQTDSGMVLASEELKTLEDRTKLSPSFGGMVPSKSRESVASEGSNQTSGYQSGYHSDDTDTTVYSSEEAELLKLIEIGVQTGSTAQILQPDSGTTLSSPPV
# Sequence of RET (P07949 29-1114): as the sequence (P07949 29-1114 limits assumed, change not shown) above
compound,measurement,setting,value
"CC(C)n1nc(-c2cc3ccccc3[nH]2)c2c(N)ncnc21 [Example 44, 3-(1H-Indol-2-yl)-1-isopropyl-pyrazolo[3,4-d]pyrimidin-4-amine]",IC50,RET,0.0187 µM
same,IC50,[1],2.77 µM
same,IC50,RET^V804M Cell,1.47 µM
same,IC50,[2],3.63 µM
same,IC50,KDR,4.57 µM
same,IC50,RET^V804M,1.87 µM
same,IC50,"[3]; BaF3 cells expressing KIF5B-RET, 48 hours, CellTiter-Glo",0.0836 µM
"CC(C)(C)OC(=O)N[C@H]1CC[C@H](n2nc(-c3cc4cccnc4[nH]3)c3c(N)ncnc32)CC1 [Example 28, tert-Butyl (trans-4-(4-amino-3-(1H-pyrrolo[2,3-b]pyridin-2-yl)-1H-pyrazolo[3,4-d]pyrimidin-1-yl)cyclohexyl)carbamate]",IC50,KDR,> 30 µM
"Nc1ncnc2c1c(-c1cc3cccnc3[nH]1)nn2[C@H]1CC[C@H](NC(=O)C2CC2)CC1 [Example 36, N-(trans-4-(4-Amino-3-(1H-pyrrolo[2,3-b]pyridin-2-yl)-1H-pyrazolo[3,4-d]pyrimidin-1-yl)cyclohexyl)cyclopropanecarboxamide]",IC50,KDR,> 30 µM
"CN(C)C1CCN(CCn2nc(-c3[nH]c4ncccc4c3Cl)c3c(N)ncnc32)CC1 [Example 77, 3-(3-Chloro-1H-pyrrolo[2,3-b]pyridin-2-yl)-1-(2-(4-(dimethylamino)piperidin-1-yl)ethyl)-1H-pyrazolo[3,4-d]pyrimidin-4-amine]",IC50,KDR,> 30 µM
"Nc1ncnc2c1c(-c1[nH]c3ncccc3c1Cl)nn2C1CCCCC1 [Example 67, 3-(3-Chloro-1H-pyrrolo[2,3-b]pyridin-2-yl)-1-cyclohexyl-pyrazolo[3,4-d]pyrimidin-4-amine]",IC50,RET,> 30 µM
same,IC50,RET^V804M,> 30 µM
same,IC50,[3],0.0687 µM
"CC(C)(C)n1nc(-c2cc3ncccc3[nH]2)c2c(N)ncnc21 [1-tert-butyl-3-(1H-pyrrolo[3,2-b]pyridin-2-yl)pyrazolo[3,4-d]pyrimidin-4-amine]",desired activity in the assays described in the Examples section,RET,did not exhibit the desired activity
"Nc1ncnc2c1c(-c1[nH]c3ccccc3c1Cl)nn2CC1CCNC1 (centres unmarked) [3-(3-chloro-1H-indol-2-yl)-1-(pyrrolidin-3-ylmethyl)-1H-pyrazolo[3,4-d]pyrimidin-4-amine]",desired activity in the assays described in the Examples section,RET,did not exhibit the desired activity
"Nc1ncnc2c1c(-c1[nH]c3ncccc3c1Cl)nn2CC(=O)O [2-(4-amino-3-(3-chloro-1H-pyrrolo[2,3-b]pyridin-2-yl)-1H-pyrazolo[3,4-d]pyrimidin-1-yl)acetic acid]",desired activity in the assays described in the Examples section,RET,did not exhibit the desired activity
"CS(=O)(=O)N1CCC(n2nc(-c3[nH]c4ccccc4c3Cl)c3c(N)ncnc32)CC1 [Example 4, 3-(3-Chloro-1H-indol-2-yl)-1-(1-methylsulfonyl-4-piperidyl)pyrazolo[3,4-d]pyrimidin-4-amine]",IC50,KDR,> 30 µM
"Cn1nc(-c2[nH]c3ncccc3c2Cl)c2c(N)ncnc21 [Example 65, 3-(3-Chloro-1H-pyrrolo[2,3-b]pyridin-2-yl)-1-methyl-pyrazolo[3,4-d]pyrimidin-4-amine]",desired activity in the assays described in the Examples section,RET,did not exhibit the desired activity
same,IC50,RET,> 30 µM
same,IC50,RET^V804M,> 30 µM
same,IC50,[3],1.01 µM
"CC(C)CCn1nc(-c2[nH]c3ccccc3c2Cl)c2c(N)ncnc21 [3-(3-Chloro-1H-indol-2-yl)-1-isopentyl-1H-pyrazolo[3,4-d]pyrimidin-4-amine]",desired activity in the assays described in the Examples section,RET,did not exhibit the desired activity
"CC(C)(C)OC(=O)N[C@H]1CC[C@@H](n2nc(-c3cc4cccnc4[nH]3)c3c(N)ncnc32)CC1 [Example 27, tert-Butyl N-[cis-4-(4-amino-3-{1H-pyrrolo[2,3-b]pyridin-2-yl}-1H-pyrazolo[3,4-d]pyrimidin-1-yl)cyclohexyl]carbamate]",IC50,KDR,> 30 µM

# Source: US10844067B2, “Heterocyclic compounds as RET kinase inhibitors” (Cancer Research Technology Limited, priority 2016, dated 2020)
